“Also recorded” adds a separate entry of the source.
Key:
Type in all cases: physicochemical
[1] = Speciation plot calculation of solution pH (FIG. 5, from experimentally determined pKas); conditions: according to speciation plot FIG. 5; 0.5 M solution
From the text: A pharmaceutically acceptable salt of a drug substance is one that is chemically stable and can be used in a pharmaceutical composition. Unlike simple aromatic hydrocarbons, thymodepressin is a dipeptide with multi-functional groups. The dipeptide D-isoglutamyl-D-tryptophan has an alpha amine, two carboxylic acids and an indole nitrogen within the same molecule. An ideal salt should be one that has a solution pH close to about 7 and in the low basic pH range. Through investigations in our laboratory, in the search for a novel salt to address the shortcomings of the disodium salt of D-isoglutamyl-D-tryptophan, the speciation plot (FIG. 5) was used to determine salts with ideal solution pH and solubility that are suitable for pharmaceutical formulations. FIG. 5 is a speciation plot of H-D-iGlu-D-Trp-OH from pH 0 to 12 using experimentally determined pKas. In FIG. 5, LH2=H-D-iGlu-D-Trp-OH, LH=mono carboxylic acid salt, L=dicarboxylic acid salt, and LH3=acid addition salt of H-D-iGlu-D-Trp-OH. The X axis provides the pH of the solution, whereas the Y axis reports the amount of the species present at a particular pH. From our practical experience, we use 6 ml of water per gm of H-D-iGlu-D-Trp-OH for isolation purposes, which corresponds to a concentration of 0.5 M solution.
According to the speciation plot calculation shown in FIG. 5, the diacid form has a pH of about 2.7 to about 3 in solution. The metal salt of formula I wherein M is potassium or lithium; the divalent salt of formula II wherein B is calcium or magnesium has a solution pH close to about 7.
We have applied the speciation plot (FIG. 5) to compute the pH range of the salt forms of the dipeptide H-D-iGlu-D-Trp-OH. […] This is particular ideal for liquid formulation, sublingual tablets, nasal drops and sprays.

[2] = Percent crystallinity by X-ray powder diffraction
From the text: The overall crystallinity measured by means of the XRPD technique provides additional helpful information for pharmaceutical materials that contain some amorphous material formed during synthetic procedure. It is also a valuable measure for control of long-term changes in the crystalline materials. Although not related to any structural and compositional features, the measured “percent crystallinity” may be a good indicator for the stability of a particular material as a function of time.
The percent crystallinity is commonly measured as a ratio between the diffraction portion from the crystalline part of the sample, IC, and the total diffraction from the same sample, IC+B. The values of CC can be obtained after an appropriate subtraction of the scattering portion from the background, IB.
For such kind of analyses, the diffraction is measured as total area under the profile of: • the whole pattern as it is collected (one may correct for the air scattering)—ITOTAL. • the peaks only (IC) after subtraction of the background (correction for the air scattering), • the background only with correction for air scattering—(IB).
However, in this study, due to the technical problems with the D5000 point-detector diffraction system, all the samples were analyzed on a D8 system, equipped with an area, 2D detector, and the above-mentioned approach could not be applied. Therefore, another technique has been developed for measuring the crystallinity of samples analyzed on such system. Only a narrow part of the 2D diffraction image is chosen with a single peak at the centre and a neighbour area where the background will be measured.
All samples were measured for calculation of their crystallinity using a narrow range of 21°-25° with a strongest reflection at […]. The background was subtracted as linear, and an empirical correlation coefficient of 2.5 was applied.

[3] = Hygroscopicity of the solid salt in air (laboratory observation); conditions: solid (freeze-dried / amorphous) salt

With “lithium salt of D-isoglutamyl-D-tryptophan (1:1) [Example 3A]” the pH in solution [1] was “about 7”.
In the case of “calcium salt of D-isoglutamyl-D-tryptophan (1:2) [Example 7]”, the pH in solution [1] is reported as “about 7”, the “% crystallinity” value ([2]; XRPD, D8 system with 2D detector, not absolute values, listed as Example 8) is reported as 18-20% and the “% crystallinity” value ([2]; XRPD, D8 system with 2D detector, not absolute values, listed as H-D-iGlu-D-Trp-OH calcium (2:1)) is reported as “less than 67%”. The “% crystallinity” value ([2]; XRPD, D8 system with 2D detector; not absolute values; listed as calcium salt of thymodepressin [1:2)) was no more than 67%.
For “potassium salt of D-isoglutamyl-D-tryptophan (1:1) [Example 1]”, the pH in solution [1] was “about 7”.
In the case of “magnesium salt of D-isoglutamyl-D-tryptophan (1:2) [Example 5]”, the pH in solution [1] is reported as “about 7”.
For “disodium salt of D-isoglutamyl-D-tryptophan”, the “hygroscopicity of the solid” value [3] was “extremely hygroscopic turning into a gel in a matter of minutes in air; also recorded: hygroscopic and very difficult to handle”, the “hygroscopicity of the solid” value ([3]; listed as disodium salt) was “extremely hygroscopic and very difficult to weigh” and the pH in solution [1] was “above 9.0”.
